Results taken from patent publication US12655116B2, “Substituted isophthalic acid diamides” (Bayer Aktiengesellschaft, priority 2020, dated 2026).

Assays:
VERPE [1] = assay: Pre-emergence herbicidal action against VERPE; format: in vivo, Veronica persica; settings: dosage 80 g/ha
Summary of the method: (§1)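 Sandy loam pots, seeds covered with soil, then surface-treated with WP or EC formulations at 600–800 l/ha water plus 0.2% wetting agent. Greenhouse, 3 weeks. Percent damage vs untreated controls.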

AVEFA = assay: Pre-emergence herbicidal action against AVEFA; format: in vivo, Avena fatua; settings: Avena fatua, 504 h, pre-emergence
Summary of the method: as §1

VIOTR [2] = assay: Post-emergence herbicidal action against VIOTR; format: in vivo, Viola tricolor; settings: Viola tricolor, 504 h
Summary of the method: (§2)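 Visual % rating (0% = as untreated, 100% = dead) ~3 wk after spraying one-leaf-stage plants grown in sandy loam; WP/EC in water at 600–800 l/ha, 0.2% wetting agent.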

POLCO = assay: Pre-emergence herbicidal action against POLCO; format: in vivo, Polygonum convolvulus; settings: dosage 80 g/ha
Summary of the method: as §1

ABUTH [3] = assay: Pre-emergence herbicidal action against ABUTH; format: in vivo, Abutilon theophrasti
Summary of the method: as §1

ALOMY [4] = assay: Pre-emergence herbicidal action against ALOMY; format: in vivo, Alopecurus myosuroides; settings: pre-emergence
Summary of the method: as §1

PHBPU [5] = assay: Post-emergence herbicidal action against PHBPU; format: in vivo, Pharbitis purpurea
Summary of the method: as §2

MATIN [6] = assay: Post-emergence herbicidal action against MATIN; format: in vivo, Matricaria inodora; settings: Tripleurospermum inodorum, 504 h, dosage 20 g/ha
Summary of the method: as §2

VERPE [7] = assay: Post-emergence herbicidal action against VERPE; format: in vivo, Veronica persica; settings: Veronica persica, 504 h, 20 g/ha
Summary of the method: as §2

MATIN [8] = assay: Pre-emergence herbicidal action against MATIN; format: in vivo, Matricaria inodora
Summary of the method: as §1

ALOMY [9] = assay: Post-emergence herbicidal action against ALOMY; format: in vivo, Alopecurus myosuroides; settings: visual assessment about 3 weeks after treatment vs untreated controls
Summary of the method: as §2

SETVI [10] = assay: Post-emergence herbicidal action against SETVI; format: in vivo, Setaria viridis; settings: dosage 20 g/ha
Summary of the method: as §2

VIOTR [11] = assay: Pre-emergence herbicidal action against VIOTR; format: in vivo, Viola tricolor
Summary of the method: as §1

SETVI [12] = assay: Pre-emergence herbicidal action against SETVI; format: in vivo, Setaria viridis; settings: dosage 80 g/ha
Summary of the method: as §1

ABUTH [13] = assay: Post-emergence herbicidal action against ABUTH; format: in vivo, Abutilon theophrasti; settings: Abutilon theophrasti, 504 h, visual assessment about 3 weeks after treatment vs untreated controls
Summary of the method: as §2

AMARE [14] = assay: Pre-emergence herbicidal action against AMARE; format: in vivo, Amaranthus retroflexus
Summary of the method: as §1

ECHCG [15] = assay: Post-emergence herbicidal action against ECHCG; format: in vivo, Echinochloa crus-galli
Summary of the method: as §2

LOLRI = assay: Pre-emergence herbicidal action against LOLRI; format: in vivo, Lolium rigidum; settings: 80 g/ha
Summary of the method: as §1

AMARE [16] = assay: Post-emergence herbicidal action against AMARE; format: in vivo, Amaranthus retroflexus; settings: 20 g/ha, visual assessment about 3 weeks after treatment, 100% = plants have died, 0% = like control plants
Summary of the method: as §2

ECHCG [17] = assay: Pre-emergence herbicidal action against ECHCG; format: in vivo, Echinochloa crus-galli
Summary of the method: as §1

DIGSA = assay: Pre-emergence herbicidal action against DIGSA; format: in vivo, Digitaria sanguinalis
Summary of the method: as §1

PHBPU [18] = assay: Pre-emergence herbicidal action against PHBPU; format: in vivo, Pharbitis purpurea
Summary of the method: as §1

[19] = 80 g/ha, scored visually after 3 weeks vs untreated controls (100% = plants have died, 0% = like control plants)

CCCNC(=O)c1c(C(F)F)ccc(C(=O)Nc2nnnn2C)c1C [Example 1-345]
pest or weed control at 80 g/ha (VERPE [1]; Veronica persica, 504 h): 80%
pest or weed control at 80 g/ha (AVEFA; 80 g/ha): 90%
pest or weed control at 20 g/ha (AVEFA; 20 g/ha, scored visually after 3 weeks, 100% = plants have died, 0% = like control plants): 80%
pest or weed control at 5 g/ha (VIOTR [2]; 5 g/ha): 90%
pest or weed control at 20 g/ha (VIOTR [2]; 20 g/ha): 100%
pest or weed control at 80 g/ha (POLCO; Fallopia convolvulus, 504 h): 90%
pest or weed control at 80 g/ha (ABUTH [3]; Abutilon theophrasti, 504 h, 80 g/ha, scored visually after 3 weeks vs untreated controls (100% = plants have died, 0% = like control plants)): 100%
pest or weed control at 20 g/ha (ABUTH [3]; Abutilon theophrasti, 504 h, dosage 20 g/ha, scored visually after 3 weeks vs untreated controls, 100% = plants have died, 0% = like control plants, read-out: Pre-emergence action against ABUTH (herbicidal activity in percent)): 100%
pest or weed control at 80 g/ha (ALOMY [4]; Alopecurus myosuroides, 504 h, 80 g/ha, scored visually after 3 weeks vs untreated controls (100% = plants have died, 0% = like control plants)): 90%
pest or weed control at 20 g/ha (ALOMY [4]; Alopecurus myosuroides, 504 h, 20 g/ha, scored visually after 3 weeks, 100% = plants have died, 0% = like control plants): 80%
pest or weed control at 5 g/ha (PHBPU [5]; Ipomoea purpurea, 504 h, dosage 5 g/ha): 80%
pest or weed control at 20 g/ha (PHBPU [5]; Ipomoea purpurea, 504 h, dosage 20 g/ha): 80%
pest or weed control at 20 g/ha (MATIN [6]): 80%
pest or weed control at 20 g/ha (VERPE [7]): 90%
pest or weed control at 20 g/ha (MATIN [8]; Tripleurospermum inodorum, 504 h, dosage 20 g/ha): 100%
pest or weed control at 80 g/ha (MATIN [8]; Tripleurospermum inodorum, 504 h, dosage 80 g/ha): 100%
pest or weed control at 5 g/ha (ALOMY [9]; Alopecurus myosuroides, 504 h, dosage 5 g/ha): 80%
pest or weed control at 20 g/ha (ALOMY [9]; Alopecurus myosuroides, 504 h, dosage 20 g/ha): 90%
pest or weed control at 20 g/ha (SETVI [10]; Setaria viridis, 504 h): 90%
pest or weed control at 80 g/ha (VIOTR [11]; Viola tricolor, 504 h, dosage 80 g/ha): 100%
pest or weed control at 80 g/ha (SETVI [12]; Setaria viridis, 504 h): 100%
pest or weed control at 5 g/ha (ABUTH [13]; dosage 5 g/ha): 80%
pest or weed control at 20 g/ha (ABUTH [13]; dosage 20 g/ha): 90%
pest or weed control at 20 g/ha (AMARE [14]; Amaranthus retroflexus, 504 h, 20 g/ha, scored visually after 3 weeks vs untreated controls, 100% = plants have died, 0% = like control plants): 100%
pest or weed control at 80 g/ha (AMARE [14]; Amaranthus retroflexus, 504 h, 80 g/ha, scored visually after 3 weeks vs untreated controls, 100% = plants have died, 0% = like control plants): 100%
pest or weed control at 20 g/ha (ECHCG [15]; Echinochloa crus-galli, 504 h, dosage 20 g/ha): 90%
pest or weed control at 80 g/ha (LOLRI; Lolium rigidum, 504 h): 80%
pest or weed control at 20 g/ha (AMARE [16]; Amaranthus retroflexus, 504 h): 100%
pest or weed control at 20 g/ha (ECHCG [17]; Echinochloa crus-galli, 504 h, 20 g/ha): 90%
pest or weed control at 80 g/ha (ECHCG [17]; Echinochloa crus-galli, 504 h, 80 g/ha): 100%

COCCNC(=O)c1c(C(F)(F)F)ccc(C(=O)Nc2nnnn2C)c1Cl [Example 1-138]
Pre-emergence action against VERPE in % (VERPE [1]): 90%
Pre-emergence action against DIGSA in % (DIGSA; dosage 20 g/ha): 100%
Pre-emergence action against DIGSA in % (DIGSA; dosage 80 g/ha): 100%
Pre-emergence action against POLCO in % (POLCO): 90%
Pre-emergence action against ABUTH (herbicidal activity) (ABUTH [3]; [19]): 100%
Pre-emergence action against ABUTH (herbicidal activity in percent) (ABUTH [3]; dosage 20 g/ha, scored visually after 3 weeks vs untreated controls, 100% = plants have died, 0% = like control plants): 100%
Pre-emergence action against ALOMY (herbicidal activity) (ALOMY [4]; [19]): 90%
Post-emergence action against PHBPU in % (PHBPU [5]; dosage 5 g/ha): 80%
Post-emergence action against PHBPU in % (PHBPU [5]; dosage 20 g/ha): 90%
Pre-emergence action against MATIN in % (MATIN [8]; dosage 20 g/ha): 90%
Pre-emergence action against MATIN in % (MATIN [8]; dosage 80 g/ha): 100%
Post-emergence action against ALOMY in % (ALOMY [9]; dosage 20 g/ha): 90%
Post-emergence action against SETVI in % (SETVI [10]): 80%
Pre-emergence action against VIOTR in % (VIOTR [11]; dosage 20 g/ha): 100%
Pre-emergence action against VIOTR in % (VIOTR [11]; dosage 80 g/ha): 100%
Pre-emergence action against SETVI in % (SETVI [12]): 100%
Pre-emergence action against AMARE in % (AMARE [14]; 20 g/ha, scored visually after 3 weeks vs untreated controls, 100% = plants have died, 0% = like control plants): 100%
Pre-emergence action against AMARE in % (AMARE [14]; [19]): 100%
Pre-emergence action against PHBPU in % (PHBPU [18]; dosage 20 g/ha): 80%
Pre-emergence action against PHBPU in % (PHBPU [18]; dosage 80 g/ha): 90%
Post-emergence action against ECHCG in % (ECHCG [15]; dosage 5 g/ha): 80%
Post-emergence action against ECHCG in % (ECHCG [15]; dosage 20 g/ha): 90%
Pre-emergence action against LOLRI in % (LOLRI): 90%
Post-emergence action at 20 g/ha against AMARE in % (AMARE [16]): 90%
Pre-emergence action against ECHCG in % (ECHCG [17]; 80 g/ha): 100%
